Legend:
Assay type in all cases: biochemical, human
[1] = system: receptor tyrosine kinase present in a cell membrane of MDA-MB468; test: Influence of inhibitor on kinase activity of receptor tyrosine kinase, GST-poly (Glu,Tyr) substrate, Western blotting, sample ii; details: reaction solution containing 100 μM inhibitor, C (no inhibitor) = 100%, FIG. 9
Protocol: (§1) A culturing cell (MDA-MB231) derived from a breast cancer was cultured to 80% confluent (about 10^7 cells) in a 225 cm^2 flask. This cultured cell and 1 ml of a cell treating solution (containing 20 mM HEPES pH7.4, 0.2% PI, 10% glycerol, 200 μM Na3VO4, and 50 mM NaF) were mixed, and a cell membrane was destructed by pressurizing using a pestle to prepare a cell solution. The resulting cell solution was centrifuged, and the supernatant was discarded. A precipitate and a cell membrane solubilizing solution (containing 20 mM HEPES pH7.4, 1% NP40, 0.2% PI, 10% glycerol, 200 μM Na3VO4, and 50 mM NaF) were mixed, a cell membrane was solubilized by pressurizing using a pestle, and this was centrifuged to recover the supernatant. This supernatant was used as a sample for a reaction in the following enzyme reaction. Similarly, a sample for a reaction solution was prepared from MDA-MB468 and SKBr3 which are a cultured cell derived from a breast cancer, respectively. Herein, a sample prepared from MDA-MB231 is designated as a sample for reaction “i”, a sample prepared from MDA-MB468 is designated as a sample for reaction “ii”, and a sample prepared from SKBr3 is designated as a sample for reaction “iii”. All samples for a reaction were prepared so that a concentration of a contained protein became 0.8 mg/ml.
(§2) Each 25μ of samples for a reaction were accommodated in four tubes. […]
(§3) Using these “PD”, “W”, “AG” and “C”, Western blotting was performed according to the same method as that of Example 6. Results are shown by a graph in which a fluorescent intensity of a band of a phosphorylated GST-poly (Glu,Tyr) fused protein detected in a fluorescent photograph of Western blotting was digitalized using an exclusive use analyzing software. […]

[2] = system: receptor tyrosine kinase present in a cell membrane of SKBr3; test: Influence of inhibitor on kinase activity of receptor tyrosine kinase, GST-poly (Glu,Tyr) substrate, Western blotting, sample iii; details: reaction solution containing 100 μM inhibitor, C (no inhibitor) = 100%, FIG. 10
Protocol: as §1, §2, §3

[3] = system: receptor tyrosine kinase present in a cell membrane of MDA-MB231; test: Influence of inhibitor on kinase activity of receptor tyrosine kinase, GST-poly (Glu,Tyr) substrate, Western blotting, sample i; details: reaction solution containing 100 μM inhibitor, C (no inhibitor) = 100%, FIG. 8
Protocol: as §1, §2, §3

[4] = system: receptor tyrosine kinase present in a cell membrane of SKBr3; test: Influence of ligand on kinase activity of receptor tyrosine kinase, GST-poly (Glu,Tyr) substrate, Western blotting; details: reaction solution containing 100 ng of Heregulin (H) vs no ligand (C); SKBr3 membrane sample; FIG. 11
Protocol: A culturing cell (MDA-MB231) derived from a breast cancer was cultured to 80% confluent (about 10^7 cells) in a 225 cm^2 flask. This cultured cell and 1 ml of a cell treating solution (containing 20 mM HEPES pH7.4, 0.2% PI, 10% glycerol, 200 μM Na3VO4, and 50 mM NaF) were mixed, and a cell membrane was destructed by pressurizing using a pestle to prepare a cell solution. The resulting cell solution was centrifuged, and the supernatant was discarded. A precipitate and a cell membrane solubilizing solution (containing 20 mM HEPES pH7.4, 1% NP40, 0.2% PI, 10% glycerol, 200 μM Na3VO4, and 50 mM NaF) were mixed, a cell membrane was solubilized by pressurizing using a pestle, and this was centrifuged to recover the supernatant. This supernatant was used as a sample for a reaction in the following enzyme reaction. Similarly, a sample for a reaction solution was prepared from MDA-MB468 and SKBr3 which are a cultured cell derived from a breast cancer, respectively. […]
Using these “H” and “C”, Western blotting was performed according to the same method as that of Example 6. And, a fluorescent intensity of a band of a phosphorylated GST-poly (Glu,Tyr) fused protein detected in a fluorescent photograph was digitalized using an exclusive use analyzing software. […]

Molecule | fluorescent intensity of band of phosphorylated GST-poly (Glu,Tyr) fused protein compared with C [1] | fluorescent intensity of band of phosphorylated GST-poly (Glu,Tyr) fused protein compared with C [2] | fluorescent intensity of band of phosphorylated GST-poly (Glu,Tyr) fused protein compared with C [3] | fluorescent intensity of band of phosphorylated GST-poly (Glu,Tyr) fused protein compared with C [4]
CNc1cc2c(Nc3cccc(Br)c3)ncnc2cn1 [PD158780] | reduced | reduced | not inhibited | 
COc1cc2ncnc(Nc3ccc(OCc4ccccc4)cc3)c2cc1OC [W4557] | reduced | reduced | not inhibited | 
COc1cc2ncnc(Nc3cccc(Cl)c3)c2cc1OC [AG1478] | reduced | reduced | not inhibited | 
Heregulin |  |  |  | higher

Reference: patent US20070238141A1, “Method for measuring kinase activity” (SYSMEX CORPORATION, priority 2006, published 2007)
